According to article PMC9240354, “Pharmacokinetics, Pharmacodynamics and Antiviral Efficacy of the MEK Inhibitor Zapnometinib in Animal Models and in Humans” (Frontiers in Pharmacology, 2022):

Columns and labels:
[1] = in vivo; details: beagle, dog, po, 30 mg/kg
[2] = tested on: MEK; assay: MEK inhibition in PBMCs, summary regardless of species; assay type: in vivo, mice, hamsters, dogs, human
Protocol: (§1) The pharmacodynamic assessment was performed using the Wes™ (Simple Western™) system which uses capillary electrophoresis to separate, identify and quantify proteins of interest. A chemiluminescence signal for each identified protein is detected and the area under the peak is calculated, which is then used for quantification. The 0.1x Sample Buffer, 400 mM dithiothreitol (DTT) solution, 5x Fluorescence Master Mix, and the Biotinylated Ladder (ProteinSimple®, Abingdon, Oxford, United Kingdom) were prepared according to manufacturer’s instructions. For all species, PBMCs were lysed in 1x radioimmunoprecipitation assay (RIPA) buffer (containing 0.24% (w/v) tris base (Sigma-Aldrich, St. Louis, MO, United States), 0.88% (w/v) NaCl (Carl Roth GmbH, Karlsruhe, Germany), 0.2% (v/v) 500 mM EDTA (Sigma-Aldrich), 1% (v/v) Triton X-100 (Sigma-Aldrich), 0.5% (w/v) sodium deoxycholate (Sigma-Aldrich), 0.1% (w/v) sodium dodecyl sulfate (SDS) (Carl Roth), 10% (v/v) glycerol (Carl Roth), 0.05% phenylmethyl sulfonyl fluoride (PMSF) (Carl Roth), 0.01% Benzonase® Nuclease (Sigma-Aldrich), protease inhibitor cocktail (Roche, Basel, Switzerland), and phosphatase inhibitor cocktail (Roche) in H2O), further diluted with 0.1x Sample Buffer (ProteinSimple®, Abingdon, Oxford, United Kingdom) to adjust the protein concentration to 1 μg/μl. Then the 5x Fluorescence Master Mix in DTT (ProteinSimple®) was added, and the samples were denatured for 5 min at 95°C, loaded onto the assay plate and analyzed using specific antibodies. […] The anti-rabbit secondary antibody (Cat# DM-001) was also purchased from ProteinSimple® and was ready to use. Data were analyzed with Compass software for simple western (ProteinSimple®). Using the ratio of pERK to ERK of each sample compared to control (pre-dose), the level of ERK phosphorylation was calculated and then converted into the percentage level of MEK inhibition.

[3] = mice
[4] = tested on: MEK; assay: MEK inhibition in PBMCs of healthy human volunteers (pERK/ERK, Wes); assay type: in vivo
Protocol: (§2) PBMCs were isolated from the same blood samples (30 µl mouse blood, 50 µl hamster blood, or 1 ml dog blood) used for pharmacokinetic analysis. After plasma separation as described in the section above (Blood sampling and preparation of plasma samples), the remaining red blood cells were lysed by adding 1 volume of red blood cell (RBC) lysis buffer (Thermo Fisher Scientific, Waltham, MA, United States) (300 µl for mice, 500 µl for hamster, and 10 ml for dogs). The samples were incubated for 15 min at RT and centrifuged at 500 x g for 5 min (RT). The supernatant was removed completely, and the pellet was washed twice with PBS. The PBMC cell pellets were store at −80°C until further analysis. PBMCs of 8 ml human blood were isolated using CPT^TM tubes. After a 20-min centrifugation at 1,650 x g at room temperature, the plasma was collected for PK analysis as described in the section above (Blood sampling and preparation of plasma samples). The PBMC layer was collected in a 15 ml tube (Greiner Bio-One, Frickenhausen, Germany), and washed twice with PBS by centrifugation at 300 x g for 10 min at RT. The PBMC pellets were store at −80°C until further PD assessment.
as §1

[5] = in vivo; details: Syrian, hamster; for AUC(0-t) / Cmax / Tmax: po
[6] = tested on: human PBMCs; details: read-out: CC50 cytotoxicity, ref Laure et al., 2020; cited from earlier work
[7] = tested on: MEK; assay: MEK inhibition in PBMCs of treated mice (pERK/ERK, Wes); assay type: in vivo, C57BL/6 mice
Protocol: as §2, with “The PBMC layer was collected in a 15 ml tube (Greiner Bio-One, Frickenhausen, Germany), and washed twice with PBS by centrifugation at 300 x g for 10 min at RT. The PBMC pellets were store at −80°C until further PD assessment.” left out
The pharmacodynamic assessment was performed using the Wes™ (Simple Western™) system which uses capillary electrophoresis to separate, identify and quantify proteins of interest. A chemiluminescence signal for each identified protein is detected and the area under the peak is calculated, which is then used for quantification. The 0.1x Sample Buffer, 400 mM dithiothreitol (DTT) solution, 5x Fluorescence Master Mix, and the Biotinylated Ladder (ProteinSimple®, Abingdon, Oxford, United Kingdom) were prepared according to manufacturer’s instructions. […] Then the 5x Fluorescence Master Mix in DTT (ProteinSimple®) was added, and the samples were denatured for 5 min at 95°C, loaded onto the assay plate and analyzed using specific antibodies. […] The anti-rabbit secondary antibody (Cat# DM-001) was also purchased from ProteinSimple® and was ready to use. Data were analyzed with Compass software for simple western (ProteinSimple®). Using the ratio of pERK to ERK of each sample compared to control (pre-dose), the level of ERK phosphorylation was calculated and then converted into the percentage level of MEK inhibition.

[8] = single oral dose 100 mg, vs pre-dose
[9] = single oral dose 300 mg, vs pre-dose
[10] = single oral dose 600 mg, vs pre-dose
[11] = single oral dose 900 mg, vs pre-dose

With `O=C(O)c1ccc(F)c(F)c1Nc1ccc(I)cc1Cl` [zapnometinib, 2-(2-Chloro-4-Iodophenylamino)-N-3,4-Difluoro benzoic acid] the half-life [1] was 4 to 5 h, the “concentration to inhibit 50% of PBMC MEK activity” value ([2]; across all species) was “approximately 10 μg/ml” and the “MEK inhibition in PBMCs, maximum observed” value ([2]; regardless of species) was “up to 80%”. For the same compound, the “MEK inhibition maintained 24 h after dosing” value ([2]; regardless of species, almost all zapnometinib eliminated from plasma) was “up to 50%”, the “plasma concentration two hours after the second administration” value ([3]; 25 mg/kg p.o. twice, t = 10 h) was 101000 ± 16000 ng/mL and the “plasma concentration prior to the second treatment” value ([3]; 25 mg/kg p.o., t = 8 h) was 36000 ± 8000 ng/mL. For the same compound, the “MEK inhibition at Cmax” value ([4]; doses 100, 300 and 600 mg taken together) was “approximately 60%”, the “MEK inhibition at 24 h” value [4, 8] was 35 ± 25% and the “MEK inhibition at Cmax” value [4, 8] was 63 ± 8%. For the same compound, the “MEK inhibition at 24 h” value [4, 9] was 41 ± 26%, the “MEK inhibition at Cmax” value [4, 9] was 61 ± 18% and the “MEK inhibition at 24 h” value [4, 10] was 37 ± 20%. For the same compound, the “MEK inhibition at Cmax” value [4, 10] was 64 ± 22%, the “MEK inhibition at 24 h” value [4, 11] was 26 ± 26% and the “MEK inhibition at Cmax” value [4, 11] was 79 ± 20%. The half-life [5] was 8 h, the AUC(0-t) ([5]; 15 mg/kg) was 121 ± 4 µg·h/mL and the Cmax ([5]; 15 mg/kg) was 15000 ± 1000 ng/mL. It also gave a Tmax ([5]; 15 mg/kg) of 3 ± 1 h, an AUC(0-t) ([5]; 60 mg/kg) of 623 ± 87 µg·h/mL and a Cmax ([5]; 60 mg/kg) of 61000 ± 2000 ng/mL. For the same compound, the Tmax ([5]; 60 mg/kg) was 3 ± 1 h, the CC50 [6] was 322 µM and the “MEK inhibition, first maximum” value ([7]; 2 h after first treatment) was 72 ± 10%. The “MEK inhibition, second maximum” value ([7]; 22 h after first treatment (14 h after second)) was 80 ± 5% and the “MEK inhibition at end of observation period” value ([7]; t = 24 h) was 66 ± 19%.
